Test results taken from patent US6362369B1, “Phthalic acid diamide derivatives fluorine-containing aniline compounds as starting material, agricultural and horticultural insecticides, and a method for application of the insecticides” (Nihon Nohyaku Co., Ltd., priority 1997, dated 2002).

Key:
Assay type in all cases: in vivo
[1] = tested on: rice leafroller (Cnaphalocrocis medinalis); assay: Insecticidal effect on rice leafroller (Test Example 3); settings: 500 ppm, 25° C., humidity 70%; for Insecticidal effect on rice leafroller (Test Example 3), judged grade / Insecticidal effect (Test Example 3), judged from mortality: rice lamina dip; for Insecticidal effect on rice leafroller (Test Example 3), judged grade: third-instar larvae; for Insecticidal effect on rice leafroller (Test Example 3), judged grade / Insecticidal effect, Test Example 3: four days after inoculation; for Insecticidal effect, Test Example 3: rice lamina immersed; for Insecticidal effect (Test Example 3), judged from mortality: 4 days after inoculation
Method in brief: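 Insecticidal effect is judged by a predefined criterion from dead/alive counts four days after infesting air-dried lamina with third-instar larvae, kept on moistened filter paper at 25° C, 70% humidity.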

[2] = tested on: common cutworm (Spodoptera Litura); assay: Insecticidal effect on common cutworm (Test Example 2); settings: 500 ppm, 25° C.; for Insecticidal effect on common cutworm (Test Example 2), judged grade / Insecticidal effect (Test Example 2), judged from mortality: cabbage leaf dip; for Insecticidal effect on common cutworm (Test Example 2), judged grade: second-instar larvae; for Insecticidal effect on common cutworm (Test Example 2), judged grade / Insecticidal effect, Test Example 2: eight days after inoculation; for Insecticidal effect, Test Example 2: cabbage leaf immersed; for Insecticidal effect (Test Example 2), judged from mortality: 8 days after inoculation
Method in brief: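 2nd-instar larvae on air-dried treatment, closed dish, 25° C; dead/alive counted at day 8. Mortality calculated, graded by criterion. 3 × 10 insects.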

[3] = tested on: diamondback moth (Plutella xylostella); assay: Insecticidal effect on diamondback moth (Test Example 1); settings: for Insecticidal effect on diamondback moth (Test Example 1), judged grade: mortality judged according to the criterion shown in Test Example 1; for Insecticidal effect, Test Example 1 / Insecticidal effect (Test Example 1), judged from mortality: diamondback moth; for Insecticidal effect (Test Example 1), judged from mortality: judged by the criterion of Test Example 1
Method in brief: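 Oviposition by adults on Chinese cabbage seedling; immersion; air-dry; 25° C room. Count of hatched larvae at day 6 post-immersion → mortality → effect graded by criterion. Triplicate, 10 insects/group.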

[4] = third-instar larvae of rice leafroller
[5] = second-instar larvae of common cutworm
[6] = judged by the mortality criterion of Test Example 1
[7] = rice leafroller third-instar larvae
[8] = common cutworm second-instar larvae
[9] = mortality judged by criterion of Test Example 1

CSc1cccc(C(=O)Nc2ccc(Cl)cc2C)c1C(=O)NC(C)C [compound 781]
Insecticidal effect on rice leafroller (Test Example 3), judged grade [1]: A (100)
Insecticidal effect on common cutworm (Test Example 2), judged grade [2]: A (100)
Insecticidal effect on diamondback moth (Test Example 1), judged grade [3]: A (100)

COc1cccc(C(=O)NC(C)C)c1C(=O)Nc1cc(Cl)ccc1C [compound 770]
Insecticidal effect on rice leafroller (Test Example 3), judged grade [1]: A (100)
Insecticidal effect on common cutworm (Test Example 2), judged grade [2]: A (100)
Insecticidal effect on diamondback moth (Test Example 1), judged grade [3]: A (100)

Cc1cc(C(F)(F)F)ccc1NC(=O)c1cccc(I)c1C(=O)NC(C)C [compound 371]
Insecticidal effect, Test Example 3 [1, 4]: A (100)
Insecticidal effect, Test Example 2 [2, 5]: A (100)
Insecticidal effect, Test Example 1 [3, 6]: A (100)

COc1ccc(NC(=O)c2cccc(I)c2C(=O)NC(C)C)c(C)c1C [compound 378]
Insecticidal effect, Test Example 3 [1, 4]: A (100)
Insecticidal effect, Test Example 2 [2, 5]: D (79-50)
Insecticidal effect, Test Example 1 [3, 6]: A (100)

Cc1cc(C(F)(F)C(F)(F)F)ccc1NC(=O)c1ccc(I)cc1C(=O)NC(C)C [compound 1202]
Insecticidal effect, Test Example 3 [1, 7]: A (100)
Insecticidal effect, Test Example 2 [2, 8]: A (100)
Insecticidal effect, Test Example 1 [3, 9]: A (100)

Cc1cc(C(F)(F)C(F)(F)F)ccc1N(C)C(=O)c1cccc(I)c1C(=O)N(C)C(C)C [compound 1121]
Insecticidal effect, Test Example 3 [1, 7]: A (100)
Insecticidal effect, Test Example 2 [2, 8]: A (100)
Insecticidal effect, Test Example 1 [3, 9]: A (100)

CCNC(=O)c1c(I)cccc1C(=O)Nc1ccc(C(F)(F)C(F)(F)F)cc1C [compound 1313]
Insecticidal effect, Test Example 3 [1, 7]: A (100)
Insecticidal effect, Test Example 2 [2, 8]: A (100)
Insecticidal effect, Test Example 1 [3, 9]: A (100)

Cc1cc(F)ccc1NC(=O)c1cccc(Br)c1C(=O)NC(C)C [compound 275]
Insecticidal effect, Test Example 3 [1, 4]: A (100)
Insecticidal effect, Test Example 2 [2, 5]: D (79-50)
Insecticidal effect, Test Example 1 [3, 6]: A (100)

CCC(C)NC(=O)c1c(I)cccc1C(=O)Nc1ccc(C(F)(F)C(F)(F)F)cc1Cl (stereo not drawn) [compound 1473]
Insecticidal effect (Test Example 3), judged from mortality [1, 4]: A (100)
Insecticidal effect (Test Example 2), judged from mortality [2, 5]: A (100)
Insecticidal effect (Test Example 1), judged from mortality [3]: A (100)

Cc1cc(C(F)(F)F)ccc1NC(=O)c1c(Br)cccc1C(=O)NC(C)C [compound 316]
Insecticidal effect, Test Example 3 [1, 4]: A (100)
Insecticidal effect, Test Example 2 [2, 5]: A (100)
Insecticidal effect, Test Example 1 [3, 6]: A (100)

CCOP(=O)(OCC)c1ccc(NC(=O)c2cccc(Cl)c2C(=O)NC(C)C)c(C)c1 [compound 161]
Insecticidal effect, Test Example 3 [1, 4]: A (100)
Insecticidal effect, Test Example 2 [2, 5]: D (79-50)
Insecticidal effect, Test Example 1 [3, 6]: A (100)

CCN(CC)C(=O)c1cccc([N+](=O)[O-])c1C(=O)Nc1ccc(C(F)(F)C(F)(F)F)cc1C [compound 1551]
Insecticidal effect (Test Example 3), judged from mortality [1, 4]: A (100)
Insecticidal effect (Test Example 2), judged from mortality [2, 5]: D (79-50)
Insecticidal effect (Test Example 1), judged from mortality [3]: A (100)

C#CC(C)(C)NC(=O)c1c(Cl)cccc1C(=O)Nc1ccc(OC(F)(F)F)cc1C [compound 1602]
Insecticidal effect (Test Example 3), judged from mortality [1, 4]: A (100)
Insecticidal effect (Test Example 2), judged from mortality [2, 5]: A (100)
Insecticidal effect (Test Example 1), judged from mortality [3]: A (100)

Cc1cc(OC(F)(F)C(F)C(F)(F)F)ccc1NC(=O)c1cccc(F)c1C(=O)NC(C)C (stereo not drawn) [compound 514]
Insecticidal effect on rice leafroller (Test Example 3), judged grade [1]: A (100)
Insecticidal effect on common cutworm (Test Example 2), judged grade [2]: A (100)
Insecticidal effect on diamondback moth (Test Example 1), judged grade [3]: A (100)

Cc1cc(C(F)(F)C(F)(F)F)ccc1NC(=O)c1cccc(C(F)(F)F)c1C(=O)NC(C)(C)C [compound 1231]
Insecticidal effect, Test Example 3 [1, 7]: A (100)
Insecticidal effect, Test Example 2 [2, 8]: A (100)
Insecticidal effect, Test Example 1 [3, 9]: A (100)

Cc1cc(C(F)(F)C(F)(F)C(F)(F)F)ccc1NC(=O)c1cccc(Br)c1C(=O)NC(C)C [compound 279]
Insecticidal effect, Test Example 3 [1, 4]: A (100)
Insecticidal effect, Test Example 2 [2, 5]: A (100)
Insecticidal effect, Test Example 1 [3, 6]: A (100)

Cc1cc(OC(F)(F)C(F)Cl)ccc1NC(=O)c1cccc(I)c1C(=O)NC(C)C (stereo not drawn) [compound 392]
Insecticidal effect, Test Example 3 [1, 4]: A (100)
Insecticidal effect, Test Example 2 [2, 5]: A (100)
Insecticidal effect, Test Example 1 [3, 6]: A (100)

Cc1c(Cl)cccc1NC(=O)c1cccc([N+](=O)[O-])c1C(=O)NC(C)C [compound 663]
Insecticidal effect on rice leafroller (Test Example 3), judged grade [1]: D (79-50)
Insecticidal effect on common cutworm (Test Example 2), judged grade [2]: A (100)
Insecticidal effect on diamondback moth (Test Example 1), judged grade [3]: A (100)

Cc1cc(OC(F)(F)C(F)(Br)C(F)(F)F)ccc1NC(=O)c1cccc([N+](=O)[O-])c1C(=O)NC(C)C (stereo not drawn) [compound 700]
Insecticidal effect on rice leafroller (Test Example 3), judged grade [1]: A (100)
Insecticidal effect on common cutworm (Test Example 2), judged grade [2]: A (100)
Insecticidal effect on diamondback moth (Test Example 1), judged grade [3]: A (100)

Cc1cc(OC(F)F)ccc1NC(=O)c1cccc(F)c1C(=O)NC(C)(C)C [compound 1506]
Insecticidal effect (Test Example 3), judged from mortality [1, 4]: A (100)
Insecticidal effect (Test Example 2), judged from mortality [2, 5]: A (100)
Insecticidal effect (Test Example 1), judged from mortality [3]: A (100)

Cc1cc(C(F)(F)F)ccc1NC(=O)c1c(I)cccc1C(=O)NC(C)C [compound 436]
Insecticidal effect, Test Example 3 [1, 4]: A (100)
Insecticidal effect, Test Example 2 [2, 5]: B (99-90)
Insecticidal effect, Test Example 1 [3, 6]: A (100)

Cc1ccc(NC(=O)c2cccc([N+](=O)[O-])c2C(=O)NC(C)C)c(C)c1 [compound 648]
Insecticidal effect on rice leafroller (Test Example 3), judged grade [1]: A (100)
Insecticidal effect on common cutworm (Test Example 2), judged grade [2]: D (79-50)
Insecticidal effect on diamondback moth (Test Example 1), judged grade [3]: A (100)

CC(C)NC(=O)c1c(C(=O)Nc2ccc3c(c2)OC(F)C(F)(F)O3)cccc1[N+](=O)[O-] (stereo not drawn) [compound 1146]
Insecticidal effect, Test Example 3 [1, 7]: A (100)
Insecticidal effect, Test Example 2 [2, 8]: C (89-80)
Insecticidal effect, Test Example 1 [3, 9]: A (100)

CC(C)NC(=O)c1c(I)cccc1C(=O)Nc1ccc2c(c1Cl)OC(F)C(F)(F)O2 (racemic) [compound 1680]
Insecticidal effect (Test Example 3), judged from mortality [1, 4]: A (100)
Insecticidal effect (Test Example 2), judged from mortality [2, 5]: A (100)
Insecticidal effect (Test Example 1), judged from mortality [3]: A (100)

Cc1cc(C(F)(F)C(F)(F)C(F)(F)C(F)(F)F)ccc1NC(=O)c1c(F)cccc1C(=O)NC(C)C [compound 557]
Insecticidal effect on rice leafroller (Test Example 3), judged grade [1]: B (99-90)
Insecticidal effect on common cutworm (Test Example 2), judged grade [2]: C (89-80)
Insecticidal effect on diamondback moth (Test Example 1), judged grade [3]: A (100)

Cc1cc(OC(F)(F)C(F)OC(F)(F)F)ccc1NC(=O)c1c(I)cccc1C(=O)NC(C)C (stereo not drawn) [compound 457]
Insecticidal effect on rice leafroller (Test Example 3), judged grade [1]: B (99-90)
Insecticidal effect on common cutworm (Test Example 2), judged grade [2]: A (100)
Insecticidal effect on diamondback moth (Test Example 1), judged grade [3]: A (100)

CC(C)(C)NC(=O)c1c(I)cccc1C(=O)Nc1ccc(S(=O)(=O)C(F)(F)F)cc1 [compound 1080]
Insecticidal effect, Test Example 3 [1, 7]: A (100)
Insecticidal effect, Test Example 2 [2, 8]: A (100)
Insecticidal effect, Test Example 1 [3, 9]: A (100)

Cc1c(Cl)cccc1NC(=O)c1cccc(F)c1C(=O)NC(C)C [compound 489]
Insecticidal effect on rice leafroller (Test Example 3), judged grade [1]: A (100)
Insecticidal effect on common cutworm (Test Example 2), judged grade [2]: A (100)
Insecticidal effect on diamondback moth (Test Example 1), judged grade [3]: A (100)

Cc1c(Cl)cccc1NC(=O)c1ccccc1C(=O)NC(C)C [compound 49]
Insecticidal effect, Test Example 3 [1, 4]: A (100)
Insecticidal effect, Test Example 2 [2, 5]: A (100)
Insecticidal effect, Test Example 1 [3, 6]: A (100)

Cc1cc(OC(F)(F)C(F)F)ccc1NC(=O)c1cccc(I)c1C(=O)NC(C)C [compound 390]
Insecticidal effect, Test Example 3 [1, 4]: A (100)
Insecticidal effect, Test Example 2 [2, 5]: A (100)
Insecticidal effect, Test Example 1 [3, 6]: A (100)

CCN(CC)C(=O)c1c(OC(F)(F)F)cccc1C(=O)Nc1ccc(C(F)(F)C(F)(F)F)cc1C [compound 1193]
Insecticidal effect, Test Example 3 [1, 7]: A (100)
Insecticidal effect, Test Example 2 [2, 8]: A (100)
Insecticidal effect, Test Example 1 [3, 9]: A (100)
